Data published in US20160016951A1 (Merck Patent GmbH, priority 2014, published 2016).
pIC50: −log10 of the molar value. Structures can show the parent of a compound that is named as a salt. Where two headings read alike, the source gives them in different places.

Molecular target: T1, CDK8 (CDK8/CycC) (Homo sapiens, UniProt P49336)
T1 construct: purchased Invitrogen PV4402
Assay: FRET based Lanthascreen binding competition assay
Summary of the method: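 CDK8 co-expressed with CycC and labelled through biotinylated anti-His antibody and streptavidin-Eu was preincubated with compound for 20 min at RT. An Alexa647 ATP-competitive probe was then added for 60 min at RT in the dark. Probe displacement was read as loss of TR-FRET (excitation 340 nm, emission 650 nm).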

[1] = 5 nM CDK8/CycC, 10 nM Alexa647-Tracer, 1% DMSO, 60 min at RT, read-out: IC50 CDK8 binding

T1 sequence (P49336 whole entry): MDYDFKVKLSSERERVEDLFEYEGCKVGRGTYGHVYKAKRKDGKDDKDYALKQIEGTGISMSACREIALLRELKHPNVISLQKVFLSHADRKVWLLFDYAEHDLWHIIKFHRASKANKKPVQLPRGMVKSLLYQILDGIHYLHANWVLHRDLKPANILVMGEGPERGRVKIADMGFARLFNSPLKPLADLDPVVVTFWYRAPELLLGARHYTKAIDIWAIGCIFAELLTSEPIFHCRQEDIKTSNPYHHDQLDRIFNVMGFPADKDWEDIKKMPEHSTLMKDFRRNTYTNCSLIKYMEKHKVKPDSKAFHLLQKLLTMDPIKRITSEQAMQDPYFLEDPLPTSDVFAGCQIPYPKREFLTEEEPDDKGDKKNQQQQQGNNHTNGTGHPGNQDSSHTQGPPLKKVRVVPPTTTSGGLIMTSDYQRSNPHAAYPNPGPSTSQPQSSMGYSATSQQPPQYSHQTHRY
T1 sequence (P24863 whole entry partner): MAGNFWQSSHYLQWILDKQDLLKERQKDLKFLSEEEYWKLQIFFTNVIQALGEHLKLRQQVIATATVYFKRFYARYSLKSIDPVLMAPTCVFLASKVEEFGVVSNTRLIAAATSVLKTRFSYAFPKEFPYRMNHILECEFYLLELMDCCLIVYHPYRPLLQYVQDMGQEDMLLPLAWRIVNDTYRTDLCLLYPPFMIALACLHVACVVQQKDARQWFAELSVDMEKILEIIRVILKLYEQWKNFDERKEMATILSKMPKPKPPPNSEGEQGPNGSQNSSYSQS

Compound | pIC50 [1] | pIC50
Cn1cc(-c2ccc(-c3c(Cl)ncc4ccc(C(=N)N)nc34)cc2)cn1 [Compound 68, 7-chloro-8-(4-(1-methyl-1H-pyrazol-4-yl)phenyl)-1,6-naphthyridine-2-carboximidamide] | 6.30 to 7.00 | –
Cn1cc(-c2ccc(-c3cncc4ccc(-c5nnnn5C)cc34)cc2)cn1 [Compound 123, 4-(4-(1-methyl-1H-pyrazol-4-yl)phenyl)-6-(1-methyl-1H-tetrazol-5-yl)isoquinoline] | 7.00 to 8.00 | –
O=C(c1ccc2cncc(Br)c2n1)N1CCC[C@H]1c1ccc(C(F)(F)F)cc1 [Compound 91, (S)-(8-bromo-1,6-naphthyridin-2-yl)(2-(4-(trifluoromethyl)phenyl)pyrrolidin-1-yl)methanone] | 7.00 to 8.00 | –
Cn1cc(-c2ccc(-c3cncc4ccccc34)cc2)cn1 [Compound 109, 4-(4-(1-methyl-1H-pyrazol-4-yl)phenyl)isoquinoline] | 7.00 to 8.00 | –
COC1(C)CN(C(=O)c2ccc3cncc(-c4ccc(-c5cnn(C)c5)cc4)c3c2)C1 [Compound 185] | 7.00 to 8.00 | –
CC1CC(=O)N(c2ccc3cncc(-c4ccc(-c5cnn(C)c5)cc4)c3c2)C1 (stereo not shown) [Compound 111, 4-Methyl-1-{4-[4-(1-methyl-1H-pyrazol-4-yl)-phenyl]-isoquinolin-6-yl}-pyrrolidin-2-one] | 7.00 to 8.00 | –
C[C@H](NC(=O)c1ccc2cncc(Br)c2n1)c1ccccc1 [Compound 70, (S)-8-bromo-N-(1-phenylethyl)-1,6-naphthyridine-2-carboxamide] | 6.30 to 7.00 | –
COC1CN(C(=O)c2ccc3c(N)ncc(-c4ccc5c(c4)CC(=O)N5C)c3c2)C1 [Compound 177, 5-[1-Amino-6-(3-methoxy-azetidine-1-carbonyl)-isoquinolin-4-yl]-1-methyl-1,3-dihydro-indol-2-one] | 7.00 to 8.00 | –
CNC(=O)c1ccc2cncc(-c3ccc(-c4cnn(C)c4)cc3C)c2n1 [Compound 43, N-methyl-8-(2-methyl-4-(1-methyl-1H-pyrazol-4-yl)phenyl)-1,6-naphthyridine-2-carboxamide] | 7.00 to 8.00 | –
Cn1cc(-c2ccc(-c3cncc4ccc(N5CCC(=O)C5)cc34)cc2)cn1 [Compound 115, 1-{4-[4-(1-Methyl-1H-pyrazol-4-yl)-phenyl]-isoquinolin-6-yl}-pyrrolidin-3-one] | 7.00 to 8.00 | –
CC(=O)NCc1ccc2cncc(-c3ccc4c(c3)CS(=O)(=O)N4C)c2n1 [Compound 38, N-[8-(1-Methyl-2,2-dioxo-2,3-dihydro-1H-benzo[c]isothiazol-5-yl)-[1,6]naphthyridin-2-ylmethyl]-acetamide] | 7.00 to 8.00 | –
Cn1cc(-c2ccc(-c3cncc4ccc(-c5nn[nH]n5)nc34)cc2)cn1 [Compound 42, 8-(4-(1-methyl-1H-pyrazol-4-yl)phenyl)-2-(2H-tetrazol-5-yl)-1,6-naphthyridine] | 7.00 to 8.00 | –
CNC(=O)c1ccc2c(O)ncc(-c3ccc4c(c3)CS(=O)(=O)N4)c2n1 [Compound 63, 8-(2,2-dioxido-1,3-dihydrobenzo[c]isothiazol-5-yl)-5-hydroxy-N-methyl-1,6-naphthyridine-2-carboxamide] | 6.30 to 7.00 | –
Cn1cc(-c2ccc(-c3cncc4ccc(C(=O)N5CCC(F)(F)C5)cc34)cc2)cn1 [Compound 195, (3,3-difluoropyrrolidin-1-yl)(4-(4-(1-methyl-1H-pyrazol-4-yl)phenyl)isoquinolin-6-yl)methanone] | 7.00 to 8.00 | –
O=C(c1ccc2cnccc2n1)N1CCC[C@H]1c1ccc(Br)cc1 [Compound 84, (S)-(2-(4-bromophenyl)pyrrolidin-1-yl)(1,6-naphthyridin-2-yl)methanone] | 7.00 to 8.00 | –
Cn1cc(-c2ccc(-c3cncc4ccc(-c5nnn(C)n5)cc34)cc2)cn1 [Compound 117, 4-(4-(1-methyl-1H-pyrazol-4-yl)phenyl)-6-(2-methyl-2H-tetrazol-5-yl)isoquinoline] | 7.00 to 8.00 | –
Cc1cc2cncc(-c3ccc4c(c3)CS(=O)(=O)N4C)c2nc1C(=O)N1CCC(F)(F)C1 [Compound 41, (3,3-Difluoro-pyrrolidin-1-yl)-[3-methyl-8-(1-methyl-2,2-dioxo-2,3-dihydro-1H-benzo[c]isothiazol-5-yl)-[1,6]naphthyridin-2-yl]-methanone] | 7.00 to 8.00 | –
O=C(c1ccc2cnccc2c1)N1CCC[C@H]1c1ccc(Cl)cc1 [Compound 113, (S)-(2-(4-chlorophenyl)pyrrolidin-1-yl)(isoquinolin-6-yl)methanone] | 7.00 to 8.00 | –
Cn1cc(-c2ccc(-c3cncc4ccc(S)nc34)cc2)cn1 [Compound 77, 8-(4-(1-methyl-1H-pyrazol-4-yl)phenyl)-1,6-naphthyridine-2-thiol] | 7.00 to 8.00 | –
Nc1ncc(-c2ccc3c(c2)NC(=O)C3)c2cc(C(=O)N3CC(F)(F)C3)ccc12 [Compound 154, 6-(1-amino-6-(3,3-difluoroazetidine-1-carbonyl)isoquinolin-4-yl)indolin-2-one] | 7.00 to 8.00 | –
Cn1ncc2cc(-c3cncc4ccc(C#N)cc34)ccc21 [Compound 120, 4-(1-methyl-1H-indazol-5-yl)isoquinoline-6-carbonitrile] | 7.00 to 8.00 | –
Cn1cc(-c2ccc(-c3cncc4ccc(C(=O)O)cc34)cc2)cn1 [Compound 95, 4-(4-(1-methyl-1H-pyrazol-4-yl)phenyl)isoquinoline-6-carboxylic acid hydrochloride] | – | > 8.00

Further lines, results first:

pIC50 [1] | pIC50 | Compound
> 8.00 | – | COC1(C)CN(C(=O)c2ccc3cncc(-c4ccc(-c5cnn(C)c5)cc4)c3n2)C1 [Compound 149, (3-methoxy-3-methylazetidin-1-yl)(8-(4-(1-methyl-1H-pyrazol-4-yl)phenyl)-1,6-naphthyridin-2-yl)methanone]
7.00 to 8.00 | – | COc1ccc(CNC(=O)c2ccc3cncc(-c4ccc(-c5cnn(C)c5)cc4)c3n2)cc1 [Compound 81, N-(4-methoxybenzyl)-8-(4-(1-methyl-1H-pyrazol-4-yl)phenyl)-1,6-naphthyridine-2-carboxamide]
7.00 to 8.00 | – | Cn1cc(-c2ccc(-c3cncc4ccc(C(=O)NCc5ccc(C(F)(F)F)cc5)nc34)cc2)cn1 [Compound 87, 8-(4-(1-methyl-1H-pyrazol-4-yl)phenyl)-N-(4-(trifluoromethyl)benzyl)-1,6-naphthyridine-2-carboxamide]
7.00 to 8.00 | – | CN1c2ccc(-c3cncc4ccc(CO)nc34)cc2CS1(=O)=O [Compound 51, [8-(1-Methyl-2,2-dioxo-2,3-dihydro-1H-benzo[c]isothiazol-5-yl)-[1,6]naphthyridin-2-yl]-methanol]
7.00 to 8.00 | – | CC1CCC(=O)N1c1ccc2cncc(-c3ccc(-c4cnn(C)c4)cc3)c2c1 (stereo not shown) [Compound 114, 5-Methyl-1-{4-[4-(1-methyl-1H-pyrazol-4-yl)-phenyl]-isoquinolin-6-yl}-pyrrolidin-2-one]
> 8.00 | – | CN1c2ccc(-c3cncc4ccccc34)cc2CS1(=O)=O [Compound 100, 5-(isoquinolin-4-yl)-1-methyl-1,3-dihydrobenzo[c]isothiazole 2,2-dioxide]
> 8.00 | – | Cn1cc(-c2ccc(-c3cncc4ccc(NS(=O)(=O)N5CCC5)cc34)cc2)cn1 [Compound 169, Azetidine-1-sulfonic acid {4-[4-(1-methyl-1H-pyrazol-4-yl)-phenyl]-isoquinolin-6-yl}-amide]
> 8.00 | – | CN1c2ccc(-c3cncc4ccc(C(=O)NC5(C)CC5)nc34)cc2CS1(=O)=O [Compound 8, 8-(1-Methyl-2,2-dioxo-2,3-dihydro-1H-benzo[c]isothiazol-5-yl)-[1,6]naphthyridine-2-carboxylic acid (1-methyl-cyclopropyl)-amide]
> 8.00 | – | COCCNC(=O)c1ccc2cncc(-c3ccc(-c4cnn(C)c4)cc3)c2n1 [Compound 74, N-(2-Methoxyethyl)-8-(4-(1-methyl-1H-pyrazol-4-yl)phenyl)-1,6-naphthyridine-2-carboxamide]
> 8.00 | – | Cc1cncc2ccc(C(=O)N3CCC[C@H]3c3ccc(Cl)cc3)nc12 [Compound 83, (S)-(2-(4-chlorophenyl)pyrrolidin-1-yl)(8-methyl-1,6-naphthyridin-2-yl)methanone]
> 8.00 | – | COC1CN(C(=O)c2ccc3cncc(-c4ccc5c(c4)N(C)C(=O)C5)c3c2)C1 [Compound 165, 6-[6-(3-Methoxy-azetidine-1-carbonyl)-isoquinolin-4-yl]-1-methyl-1,3-dihydro-indol-2-one]
> 8.00 | – | Cn1cc(-c2ccc(-c3cncc4ccc(C(=O)N5CCC5)cc34)cc2)cn1 [Compound 181, azetidin-1-yl(4-(4-(1-methyl-1H-pyrazol-4-yl)phenyl)isoquinolin-6-yl)methanone]
> 8.00 | – | Cn1cc(-c2ccc(-c3cncc4ccc(NS(C)(=O)=O)cc34)cc2)cn1 [Compound 98, N-{4-[4-(1-Methyl-1H-pyrazol-4-yl)-phenyl]-isoquinolin-6-yl}-methanesulfonamide]
> 8.00 | – | O=C(c1ccc2cnccc2n1)N1CCC[C@H]1c1ccc(Cl)cc1 [Compound 37, (S)-(2-(4-chlorophenyl)pyrrolidin-1-yl)(1,6-naphthyridin-2-yl)methanone]
> 8.00 | – | CC(C)S(=O)(=O)Nc1ccc2cncc(-c3ccc(-c4cnn(C)c4)cc3)c2c1 [Compound 157, Propane-2-sulfonic acid {4-[4-(1-methyl-1H-pyrazol-4-yl)-phenyl]-isoquinolin-6-yl}-amide]
> 8.00 | – | O=C(c1ccc2cncc(-c3ccc4c(c3)CS(=O)(=O)N4)c2c1)N1CCC1 [Compound 192, azetidin-1-yl(4-(2,2-dioxido-1,3-dihydrobenzo[c]isothiazol-5-yl)isoquinolin-6-yl)methanone]
> 8.00 | – | CNC(=O)c1nc2c(-c3ccc4c(c3)CS(=O)(=O)N4C)cncc2cc1C [Compound 12, 3-Methyl-8-(1-methyl-2,2-dioxo-2,3-dihydro-1H-benzo[c]isothiazol-5-yl)-[1,6]naphthyridine-2-carboxylic acid methylamide]
> 8.00 | – | C[C@H](NC(=O)c1ccc2cncc(-c3ccc(-c4cnn(C)c4)cc3)c2n1)c1ccccc1 [Compound 27, (S)-8-(4-(1-methyl-1H-pyrazol-4-yl)phenyl)-N-(1-phenylethyl)-1,6-naphthyridine-2-carboxamide]
